Laboratory results: US20220202905A1, “COMPOSITION FOR PREVENTING OR TREATING NEUROTROPHIC KERATITIS WHICH CONTAINS PACAP PEPTIDE OR STABILIZED PACAP PEPTIDE” (SENJU PHARMACEUTICAL CO., LTD., priority 2019, published 2022)
Square brackets hold non-standard residues; d marks the D form. Peptide text beside a SMILES is read from it. * marks the point of attachment. Ala(1H-tetrazol-5-yl) = N[C@@H](Cc1nnn[nH]1)C(=O)O; Ms = CS(=O)(=O)*

Experiments:
[1] = Peptide stability test, Tris buffer (pH 7.0), 60° C. storage, HPLC remaining rate; format: physicochemical; settings: 100 μM in Tris buffer pH 7.0
In short: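 Peptides at 100 μM in Tris buffer (pH 7.0) stored 1 or 2 weeks at 60° C.; unstored sample kept at −30° C. as initial reference. Remaining peptide quantified by reversed-phase HPLC at 220 nm (formic acid/acetonitrile gradient, 40° C. column), as water-corrected remaining rate.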

[2] = test system: rat trigeminal nerve cells; assay: Axon elongation effect on cultured rat trigeminal nerve cells; format: cell-based; settings: 1 μM peptide, 24 hours; N=8; Dunnett's test vs control P<0.001; FIG. 5
Experimental: Rats (Sic: Sprague-Dawley, 17-day-old, including female and male) purchased from Japan SLC, Inc. were euthanized by carbon dioxide gas inhalation and the trigeminal ganglion was harvested. The harvested trigeminal ganglion was washed with Hanks' balanced salt solution (HBSS) and then treated with collagenase A (Roche) for 30 minutes at 37° C. A neuron dispersion (Wako) was then used according to protocol for dispersion of the cells. Debris removal solution (Miltenyi biotec) and Myelin removal beads II (Miltenyi biotec) were used according to protocol to remove the debris and myelin. After suspending the isolated trigeminal nerve cells in culture solution, they were seeded onto a polylysine/laminin-coated 8-well chamber slide (Corning) at 2.5×10^3 cells/well. The culture solution used was Neurobasal-A containing B27 supplement (final concentration: 2%) and GlutaMAX (final concentration: 2 mM) and penicillin/streptomycin (final concentration: 1%). The culturing conditions were a carbon dioxide concentration of 5%, an air concentration of 95%, a humidity of 100% and a temperature of 37° C. […] The control was replaced with peptide-free culture solution. Culture medium replacement was followed by further culturing for 24 hours.
The culture medium was replaced with peptide-containing culture solution, and the rat trigeminal nerve cells cultured for 24 hours were immersed in a 2% paraformaldehyde solution at room temperature for 20 minutes for fixing. The cells were washed with PBS, and then 2% bovine serum albumin containing 0.1% TritonX-100 was added and reaction was conducted for 30 minutes. After washing with PBS, it was reacted with phospho-neurofilament H antibody (Merck, MAB1592-C) specifically recognizing neurofilaments forming the neuron bodies and neurites, for 1 hour at room temperature. After reaction for 1 hour, a fluorescent-labeled secondary antibody (Invitrogen Corp., #A-11031) was reacted at room temperature for 1 hour for fluorescent staining of the sample, and the stained cells were observed under a fluorescent microscope. The stained cell image was captured as an image from the fluorescent microscope and loaded into a computer.
In order to evaluate the extent of neurite formation by the rat trigeminal nerve cells, cells with neurites having lengths of at least twice the cell body diameter in the stained cell image in the computer were counted as neurite-forming cells, and the percentage (%) of this number of cells over the total cell count was calculated (Otori Y. Wei J Y, Barnstable C J. Invest. Ophthalmol Vis Sci (1998) 39, 972-981). The significant difference with respect to the control was determined by Dunnett's test (P<0.001).

[3] = target: T1, PAC1R (Homo sapiens, UniProt P41586); assay: cAMP assay in PAC1R high-expressing CHO-K1 cell line; format: cell-based; settings: Table 12; cAMP inducing effect, CHO-K1 PAC1R high-expressing cells
T1 construct: host or cells: CHO-K1
T1 sequence (P41586 21-468): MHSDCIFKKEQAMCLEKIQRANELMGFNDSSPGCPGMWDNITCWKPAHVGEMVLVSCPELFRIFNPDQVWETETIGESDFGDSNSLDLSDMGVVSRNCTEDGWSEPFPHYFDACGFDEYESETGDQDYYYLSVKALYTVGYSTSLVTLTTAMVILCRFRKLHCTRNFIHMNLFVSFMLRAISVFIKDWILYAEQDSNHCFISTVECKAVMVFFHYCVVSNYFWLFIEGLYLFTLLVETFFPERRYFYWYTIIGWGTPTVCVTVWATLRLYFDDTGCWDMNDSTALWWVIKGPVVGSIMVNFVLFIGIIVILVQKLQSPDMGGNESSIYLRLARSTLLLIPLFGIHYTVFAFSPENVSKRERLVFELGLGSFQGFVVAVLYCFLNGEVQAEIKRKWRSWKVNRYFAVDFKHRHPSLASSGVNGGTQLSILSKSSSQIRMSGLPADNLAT
Experimental: The cells were cultured for 18 to 24 hours at 37° C. in a 5% C02 incubator, adhering the cells to the plate. […] A 5-fold dilution series was then prepared with the same Cell assay buffer and used in an assay. The cAMP assay was carried out using a Hit Hunter cAMP Assay for Biologics kit (product of DiscoveRx, Cat. No. 90-0075LM25), according to the included kit instructions. […] Next, the culture medium was removed from the CHO-K1 cell culture plate, washing was performed with PBS, and the peptide-cAMP antibody liquid mixtures were added to the cells and incubated for 30 minutes under a 5% CO2 atmosphere at 37° C. A working detection solution was then added and the culture plate was shielded from light with aluminum foil and incubated at 25° C. for 1 hour. After incubation, Solution A was added and the culture plate was shielded from light with aluminum foil and then incubated at 25° C. for 3 hours. […] The obtained value for the Relative Luminescence Unit (RLU) was analyzed with GraphPad Prism Ver 6.05 (product of Graph Pad) and the EC50 value was calculated for each peptide. […] FIG. 2 and Table 11. […] A 5-fold dilution series was then prepared with the same Cell assay buffer and used in an assay. […] A 5-fold dilution series was then prepared with the same Cell assay buffer and used in an assay.

[4] = target: T2, VPAC1 receptor (UniProt P32241 31-457, limits assumed); assay: cell-based or functional assay
T2 sequence (looked up): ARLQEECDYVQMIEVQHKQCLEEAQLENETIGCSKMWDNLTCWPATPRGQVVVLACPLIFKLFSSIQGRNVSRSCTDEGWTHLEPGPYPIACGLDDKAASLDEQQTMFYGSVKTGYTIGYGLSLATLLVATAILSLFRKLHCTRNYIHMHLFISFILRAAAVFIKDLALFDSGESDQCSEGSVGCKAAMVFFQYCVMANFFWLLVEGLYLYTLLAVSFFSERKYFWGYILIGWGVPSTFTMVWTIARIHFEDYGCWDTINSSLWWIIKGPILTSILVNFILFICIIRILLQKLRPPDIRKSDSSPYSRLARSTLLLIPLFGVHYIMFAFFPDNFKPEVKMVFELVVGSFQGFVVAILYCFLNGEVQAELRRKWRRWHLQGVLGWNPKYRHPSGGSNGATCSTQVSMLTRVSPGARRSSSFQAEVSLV

[5] = target: T3, PAC1 receptor (UniProt P41586 21-468, limits assumed); assay: cell-based or functional assay
T3 sequence (looked up): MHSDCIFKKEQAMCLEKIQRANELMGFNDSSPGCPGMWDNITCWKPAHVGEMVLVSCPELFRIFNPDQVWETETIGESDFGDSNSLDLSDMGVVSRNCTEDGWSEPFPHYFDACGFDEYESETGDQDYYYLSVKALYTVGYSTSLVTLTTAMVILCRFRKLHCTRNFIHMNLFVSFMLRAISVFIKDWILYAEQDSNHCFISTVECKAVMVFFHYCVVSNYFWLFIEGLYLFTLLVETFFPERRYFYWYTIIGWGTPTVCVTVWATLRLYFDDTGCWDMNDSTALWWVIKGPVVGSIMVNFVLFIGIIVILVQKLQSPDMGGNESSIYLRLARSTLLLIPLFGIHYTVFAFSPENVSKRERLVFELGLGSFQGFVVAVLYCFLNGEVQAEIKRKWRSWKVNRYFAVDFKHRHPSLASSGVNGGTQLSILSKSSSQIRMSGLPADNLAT

| Molecule | axon elongation (percentage of neurite-forming cells) [2] | EC50 (VPAC1R), cAMP inducing effect [4] [nM] | EC50 (PAC1R), cAMP inducing effect [5] [nM] | also measured |
| --- | --- | --- | --- | --- |
| CC[C@H](C)[C@H](NC(=O)CNC(=O)[C@H](Cc1nnn[nH]1)NC(=O)[C@H](CO)NC(=O)[C@H](Cc1c[nH]cn1)NS(C)(=O)=O)C(=O)N[C@@H](Cc1ccccc1)C(=O)N[C@H](C(=O)N[C@@H](Cc1nnn[nH]1)C(=O)N[C@@H](CO)C(=O)N[C@@H](Cc1ccc(O)cc1)C(=O)N[C@@H](CO)C(=O)N[C@@H](CCCNC(=N)N)C(=O)N[C@@H](Cc1ccc(O)cc1)C(=O)N[C@@H](CCCNC(=N)N)C(=O)N[C@@H](CCCCN)C(=O)N[C@@H](CCC(N)=O)C(=O)N[C@@H](CC(C)C)C(=O)N[C@@H](C)C(=O)N[C@H](C(=O)N[C@@H](CCCCN)C(=O)N[C@@H](CCCCN)C(=O)N[C@@H](Cc1ccc(O)cc1)C(=O)N[C@@H](CC(C)C)C(=O)N[C@@H](C)C(=O)N[C@@H](C)C(=O)N[C@H](C(=O)N[C@@H](CC(C)C)C(N)=O)C(C)C)C(C)C)[C@@H](C)O [Peptide 12] (Ms-HS[Ala(1H-tetrazol-5-yl)]GIFT[Ala(1H-tetrazol-5-yl)]SYSRYRKQLAVKKYLAAVL-NH2) | exhibited axon elongation-promoting effects | – | – | remaining rate after correction for water, 60° C., 1 week preservation ([1]; Table 7): 97.0%; remaining rate after correction for water, 60° C., 2 weeks preservation ([1]; Table 7): 93.6% |
| CC[C@H](C)[C@H](NC(=O)CNC(=O)[C@H](Cc1nnn[nH]1)NC(=O)[C@H](CO)NC(=O)[C@H](Cc1c[nH]cn1)NC(C)=O)C(=O)N[C@@H](Cc1ccccc1)C(=O)N[C@H](C(=O)N[C@@H](Cc1nnn[nH]1)C(=O)N[C@@H](CO)C(=O)N[C@@H](Cc1ccc(O)cc1)C(=O)N[C@@H](CO)C(=O)N[C@@H](CCCNC(=N)N)C(=O)N[C@@H](Cc1ccc(O)cc1)C(=O)N[C@@H](CCCNC(=N)N)C(=O)N[C@@H](CCCCN)C(=O)N[C@@H](CCC(N)=O)C(=O)N[C@@H](C)C(=O)N[C@@H](C)C(=O)N[C@H](C(=O)N[C@@H](CCCCN)C(=O)N[C@@H](CCCCN)C(=O)N[C@@H](Cc1ccc(O)cc1)C(=O)N[C@@H](CC(C)C)C(=O)N[C@@H](C)C(=O)N[C@@H](C)C(=O)N[C@H](C(=O)N[C@@H](CC(C)C)C(N)=O)C(C)C)C(C)C)[C@@H](C)O [Peptide 18] (Ac-HS[Ala(1H-tetrazol-5-yl)]GIFT[Ala(1H-tetrazol-5-yl)]SYSRYRKQAAVKKYLAAVL-NH2) | exhibited axon elongation-promoting effects | – | – | EC50 [3]: 0.061 nM; remaining rate after correction for water, 60° C., 1 week preservation ([1]; Table 7): 96.7%; remaining rate after correction for water, 60° C., 2 weeks preservation ([1]; Table 7): 90.6% |
| CC[C@H](C)[C@H](NC(=O)[C@H](C)NC(=O)[C@H](Cc1nnn[nH]1)NC(=O)[C@H](CO)NC(=O)[C@H](Cc1c[nH]cn1)NS(C)(=O)=O)C(=O)N[C@@H](Cc1ccccc1)C(=O)N[C@H](C(=O)N[C@@H](Cc1nnn[nH]1)C(=O)N[C@@H](CO)C(=O)N[C@@H](Cc1ccc(O)cc1)C(=O)N[C@@H](CO)C(=O)N[C@@H](CCCNC(=N)N)C(=O)N[C@@H](Cc1ccc(O)cc1)C(=O)N[C@@H](CCCNC(=N)N)C(=O)N[C@@H](CCCCN)C(=O)N[C@@H](CCC(N)=O)C(=O)N[C@@H](C)C(=O)N[C@@H](C)C(=O)N[C@H](C(=O)N[C@@H](CCCCN)C(=O)N[C@@H](CCCCN)C(=O)N[C@@H](Cc1ccc(O)cc1)C(=O)N[C@@H](CC(C)C)C(=O)N[C@@H](C)C(=O)N[C@@H](C)C(=O)N[C@H](C(=O)N[C@@H](CC(C)C)C(N)=O)C(C)C)C(C)C)[C@@H](C)O [Peptide 31] (Ms-HS[Ala(1H-tetrazol-5-yl)]AIFT[Ala(1H-tetrazol-5-yl)]SYSRYRKQAAVKKYLAAVL-NH2) | exhibited axon elongation-promoting effects | – | – | remaining rate after correction for water, 60° C., 2 weeks preservation ([1]; Table 7-2): 90.1% |
| HSXGIFTXSYSRYRKQLAVKKYLAAVL (Tz (aspartic acid with carboxyl group replaced by tetrazole) at positions 3 and 8; C-terminal amide (NH2)) [Peptide 7] | – | 0.114 | 0.112 | – |
| HSXGIFTXSYSRYRKQLAVKKYLAAVL (N-terminal acetyl (Ac-); Tz (aspartic acid with carboxyl group replaced by tetrazole) at positions 3 and 8; C-terminal amide (NH2)) [Peptide 9] | – | 0.043 | 0.063 | – |
| HSXGIFTXSYSRYRKQXAVKKYLAAVL (N-terminal acetyl (Ac-); Tz (aspartic acid with carboxyl group replaced by tetrazole) at positions 3 and 8; norleucine at position 17; C-terminal amide (NH2)) [Peptide 8] | – | 0.046 | 0.072 | – |
| HSXGIFTXSYSRYRKQXAVKKYLAAVL (Tz (aspartic acid with carboxyl group replaced by tetrazole) at positions 3 and 8; norleucine at position 17; C-terminal amide (NH2)) [Peptide 6] | – | 0.093 | 0.079 | – |
